Values of other authors, collected in patent US20200093804A1, “PHARMACEUTICAL COMPOSITION OF EVEROLIMUS” (INTAS PHARMACEUTICALS LTD., priority 2017, published 2020).

Conditions: from literature

SMILES: CO[C@H]1C[C@@H]2CC[C@@H](C)[C@@](O)(O2)C(=O)C(=O)N2CCCC[C@H]2C(=O)O[C@H]([C@H](C)C[C@@H]2CC[C@@H](OCCO)[C@H](OC)C2)CC(=O)[C@H](C)/C=C(\C)[C@@H](O)[C@@H](OC)C(=O)[C@H](C)C[C@H](C)/C=C/C=C/C=C/1C [Everolimus, (1R,9S,12S,15R,16E,18R,19R,21R,23S,24E,26E,28E,30S,32S,35R)-1,18dihydroxy-12-{(1R)-2-[(1S,3R,4R)-4-(2-hydroxyethoxy)-3-methoxycyclohexyl]-1-methylethyl}-19,30-dimethoxy15,17,21,23,29,35-hexamethyl-11, 36-dioxa-4-aza-tricyclo[30.3.1.04,9]hexatriaconta-16,24,26,28-tetraene-2,3,10, 14,20pentaone]
- solubility: poor
- stability: poor
